Here are results for 2 compounds from patent US20220202905A1, “COMPOSITION FOR PREVENTING OR TREATING NEUROTROPHIC KERATITIS WHICH CONTAINS PACAP PEPTIDE OR STABILIZED PACAP PEPTIDE” (SENJU PHARMACEUTICAL CO., LTD., priority 2019, published 2022).

Square brackets hold non-standard residues; d marks the D form. Peptide text beside a SMILES is read from it. Ala(1H-tetrazol-5-yl) = N[C@@H](Cc1nnn[nH]1)C(=O)O

Assay [1] concerns neurotrophic keratitis rat model. Briefly: Corneal sensation (Cochet-Bonnet) in neurotrophic keratitis rat model. The conditions noted are these: 0.1% eye drops, capsaicin-treated rats; method and result in present tense. Type of assay: in vivo. The protocol: (§1) A rat model was prepared, by subcutaneous administration of capsaicin in the dorsal region of rats, which elicited corneal nerve injury and attenuated corneal sensation while also leading to decreased lacrimal fluid volume and superficial punctate keratitis (SPK) (NPL 3: Investigative Ophthalmology & Visual Science (2012), vol. 53, No. 13, p. 8280-8287). The rats were given PACAP27 and its stabilized peptide eye drops, and the inhibiting effect on corneal damage was examined. The specific experiment method was as follows.
(§2) Capsaicin (product of Sigma) was dissolved in PBS containing 10% EtOH and 10% Tween80, and subcutaneously administered to the dorsal region of 4-day-old male Wistar/ST rats at a dose of 50 mg/kg·b·w.
The base was prepared by dissolving 0.3 g of trishydroxymethylaminomethane (Nacalai Tesque, Inc.) and 4.4 g of D(−)-mannitol (Nacalai Tesque, Inc.) in 100 mL of sterilized water, adding 1 N·HCl and adjusting the pH to 7. […] Each eye drops was stored at room temperature. Each eye drop was initially administered 3 weeks after administration of capsaicin, 3 times every day, in an amount of 10 μL for each eye.
Corneal sensation is measured using a Cochet-Bonnet corneal sensory meter (Handaya Shoten). […] This procedure is repeated 3 times, and the average value for the obtained filament lengths is recorded as the corneal sensation threshold (CST) for that individual.

The test system is the same in assay [2]. Briefly: Superficial punctate keratitis (SPK) score in neurotrophic keratitis rat model. Type of assay: in vivo. The conditions noted are these: 0.1% eye drops 3 times daily, evaluated 2 weeks after start of eye dropping; FIG. 4. The protocol:
as §1
Capsaicin (product of Sigma) was dissolved in PBS containing 10% EtOH and 10% Tween80, and subcutaneously administered to the dorsal region of 4-day-old male Wistar/ST rats at a dose of 50 mg/kg·b·w. […]
SPK was evaluated 2 weeks after the start of eye dropping. […] The eye surface was then observed with a slit lamp microscope, and the degree of corneal damage was evaluated by the method of Murakami et al., Atarashii Ganka 21 (1):87-90 (2004). Specifically, the cornea was divided into 3 regions, the top, center and bottom, and a score was assigned to each region on the following scale, with the value of the total of the scores of the 3 regions being recorded as the SPK score. <Scale> 0: No punctate stains, 1: Sparse (separated punctate fluorescein stains), 2: Intermediate (between 1 and 3), 3: Dense (almost all punctate fluorescein stains adjacent).

The test system is the same in assay [3]. Put plainly: Corneal nerve staining, nerve density in neurotrophic keratitis rat model. It counts as in vivo. The conditions noted are these: 0.1% eye drops, capsaicin-treated rats; method and result in present tense. The protocol: as §1, §2
The base was prepared by dissolving 0.3 g of trishydroxymethylaminomethane (Nacalai Tesque, Inc.) and 4.4 g of D(−)-mannitol (Nacalai Tesque, Inc.) in 100 mL of sterilized water, adding 1 N·HCl and adjusting the pH to 7. […] Each eye drops was stored at room temperature. […]
After euthanizing rats, the eye bulbs are extracted and immersed in Zamboni solution (product of Wako Pure Chemical Industries, Ltd.), and allowed to stand for 15 minutes at room temperature. […] The nerve density of the swirl structure in the nerve layer is quantified by conducting Sholl analysis using image analysis software (Image J).

Assay [4] relates to rat trigeminal nerve cells. Put plainly: Axon elongation effect on cultured rat trigeminal nerve cells. It counts as cell-based. The conditions noted are these: 1 μM peptide, 24 hours; N=8; Dunnett's test vs control P<0.001; FIG. 5. The protocol:
Rats (Sic: Sprague-Dawley, 17-day-old, including female and male) purchased from Japan SLC, Inc. were euthanized by carbon dioxide gas inhalation and the trigeminal ganglion was harvested. The harvested trigeminal ganglion was washed with Hanks' balanced salt solution (HBSS) and then treated with collagenase A (Roche) for 30 minutes at 37° C. A neuron dispersion (Wako) was then used according to protocol for dispersion of the cells. Debris removal solution (Miltenyi biotec) and Myelin removal beads II (Miltenyi biotec) were used according to protocol to remove the debris and myelin. After suspending the isolated trigeminal nerve cells in culture solution, they were seeded onto a polylysine/laminin-coated 8-well chamber slide (Corning) at 2.5×10^3 cells/well. The culture solution used was Neurobasal-A containing B27 supplement (final concentration: 2%) and GlutaMAX (final concentration: 2 mM) and penicillin/streptomycin (final concentration: 1%). The culturing conditions were a carbon dioxide concentration of 5%, an air concentration of 95%, a humidity of 100% and a temperature of 37° C. […] The control was replaced with peptide-free culture solution. Culture medium replacement was followed by further culturing for 24 hours.
The culture medium was replaced with peptide-containing culture solution, and the rat trigeminal nerve cells cultured for 24 hours were immersed in a 2% paraformaldehyde solution at room temperature for 20 minutes for fixing. The cells were washed with PBS, and then 2% bovine serum albumin containing 0.1% TritonX-100 was added and reaction was conducted for 30 minutes. After washing with PBS, it was reacted with phospho-neurofilament H antibody (Merck, MAB1592-C) specifically recognizing neurofilaments forming the neuron bodies and neurites, for 1 hour at room temperature. After reaction for 1 hour, a fluorescent-labeled secondary antibody (Invitrogen Corp., #A-11031) was reacted at room temperature for 1 hour for fluorescent staining of the sample, and the stained cells were observed under a fluorescent microscope. The stained cell image was captured as an image from the fluorescent microscope and loaded into a computer.
In order to evaluate the extent of neurite formation by the rat trigeminal nerve cells, cells with neurites having lengths of at least twice the cell body diameter in the stained cell image in the computer were counted as neurite-forming cells, and the percentage (%) of this number of cells over the total cell count was calculated (Otori Y. Wei J Y, Barnstable C J. Invest. Ophthalmol Vis Sci (1998) 39, 972-981). The significant difference with respect to the control was determined by Dunnett's test (P<0.001).

Take `CC[C@H](C)[C@H](NC(=O)CNC(=O)[C@H](CC(=O)O)NC(=O)[C@H](CO)NC(=O)[C@@H](N)Cc1cnc[nH]1)C(=O)N[C@@H](Cc1ccccc1)C(=O)N[C@H](C(=O)N[C@@H](CC(=O)O)C(=O)N[C@@H](CO)C(=O)N[C@@H](Cc1ccc(O)cc1)C(=O)N[C@@H](CO)C(=O)N[C@@H](CCCNC(=N)N)C(=O)N[C@@H](Cc1ccc(O)cc1)C(=O)N[C@@H](CCCNC(=N)N)C(=O)N[C@@H](CCCCN)C(=O)N[C@@H](CCC(N)=O)C(=O)N[C@@H](CCSC)C(=O)N[C@@H](C)C(=O)N[C@H](C(=O)N[C@@H](CCCCN)C(=O)N[C@@H](CCCCN)C(=O)N[C@@H](Cc1ccc(O)cc1)C(=O)N[C@@H](CC(C)C)C(=O)N[C@@H](C)C(=O)N[C@@H](C)C(=O)N[C@H](C(=O)N[C@@H](CC(C)C)C(N)=O)C(C)C)C(C)C)[C@@H](C)O` [Peptide 1, reference compound]: the “corneal sensation threshold (CST)” value in assay [1] is recorded as “improves reduction in corneal sensation”. Besides, the SPK score entry in assay [2] was “improved the increased SPK score”. Moreover, the “corneal nerve density (Sholl analysis)” value in assay [3] was “improves reduction in nerve density”. Besides, the “axon elongation (percentage of neurite-forming cells)” value in assay [4] is reported as “exhibited axon elongation-promoting effects”.
The matching figures for `CC[C@H](C)[C@H](NC(=O)CNC(=O)[C@H](Cc1nnn[nH]1)NC(=O)[C@H](CO)NC(=O)[C@H](Cc1c[nH]cn1)NC(C)=O)C(=O)N[C@@H](Cc1ccccc1)C(=O)N[C@H](C(=O)N[C@@H](Cc1nnn[nH]1)C(=O)N[C@@H](CO)C(=O)N[C@@H](Cc1ccc(O)cc1)C(=O)N[C@@H](CO)C(=O)N[C@@H](CCCNC(=N)N)C(=O)N[C@@H](Cc1ccc(O)cc1)C(=O)N[C@@H](CCCNC(=N)N)C(=O)N[C@@H](CCCCN)C(=O)N[C@@H](CCC(N)=O)C(=O)N[C@@H](CC(C)C)C(=O)N[C@@H](C)C(=O)N[C@H](C(=O)N[C@@H](CCCCN)C(=O)N[C@@H](CCCCN)C(=O)N[C@@H](Cc1ccc(O)cc1)C(=O)N[C@@H](CC(C)C)C(=O)N[C@@H](C)C(=O)N[C@@H](C)C(=O)N[C@H](C(=O)N[C@@H](CC(C)C)C(N)=O)C(C)C)C(C)C)[C@@H](C)O` [Peptide 9] (Ac-HS[Ala(1H-tetrazol-5-yl)]GIFT[Ala(1H-tetrazol-5-yl)]SYSRYRKQLAVKKYLAAVL-NH2): “improves reduction in corneal sensation”, “improved the increased SPK score”, “improves reduction in nerve density” and “exhibited axon elongation-promoting effects”.
